Measurements as given in patent US11691972B2, “Compounds for targeted degradation of BRD9” (C4 Therapeutics, Inc., priority 2020, dated 2023).

biological target: T1, BRD9 (Homo sapiens, UniProt Q9H8M2); assay: HiBiT BRD9 degradation assay in 293T.166 (BRD9-HiBiT) cells; format: cell-based; set-up: endogenously expressing BRD9 with HiBiT fusion tag via CRISPR; host or cells: 293T.166 (BRD9-HiBiT), also expressing LgBiT ectopically; conditions: Table 1; 293T.166 cells, 2.0 hours; class symbols; read-out: HiBiT-Degradation 293T.166 BRD9 2.0 hours (DC50)
T1 sequence (Q9H8M2 1-597): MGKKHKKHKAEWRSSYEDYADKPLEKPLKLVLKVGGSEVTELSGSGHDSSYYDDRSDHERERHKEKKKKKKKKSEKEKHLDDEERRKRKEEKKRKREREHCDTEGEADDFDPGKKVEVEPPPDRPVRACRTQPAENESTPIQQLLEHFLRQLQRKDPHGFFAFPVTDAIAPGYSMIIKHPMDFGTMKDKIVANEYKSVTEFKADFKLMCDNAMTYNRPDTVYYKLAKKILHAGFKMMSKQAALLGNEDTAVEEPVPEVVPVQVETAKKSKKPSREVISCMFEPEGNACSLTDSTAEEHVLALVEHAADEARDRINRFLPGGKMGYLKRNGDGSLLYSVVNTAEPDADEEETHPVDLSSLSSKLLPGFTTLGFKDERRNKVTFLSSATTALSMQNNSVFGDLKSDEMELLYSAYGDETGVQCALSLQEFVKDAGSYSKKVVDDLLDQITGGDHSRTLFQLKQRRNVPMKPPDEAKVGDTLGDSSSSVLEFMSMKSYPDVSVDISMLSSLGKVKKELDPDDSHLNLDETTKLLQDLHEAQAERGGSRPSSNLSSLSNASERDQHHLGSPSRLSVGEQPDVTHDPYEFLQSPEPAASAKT
In short: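 Luminescence from the Nano-Glo HiBiT lytic reagent quantified BRD9 loss after compounds (top 10 μM, half-log, 11 points, duplicates) were incubated 2 h at 37° C. with 10,000 293T.166 BRD9-HiBiT/LgBiT cells per well, with controls lacking compound or lacking reagent.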

DC50, < 100 nM:
COc1cc(-c2cn(C)c(=O)c3[nH]ncc23)cc(OC)c1CN1CCN(CCCC(=O)N2CCC(c3ccc(NC4CCC(=O)NC4=O)cc3)CC2)CC1 (stereo not drawn) [Compound 40]
COc1cc(-c2cn(C)c(=O)c3cnccc23)cc(Cl)c1C(=O)N1CCC(CCC2CCN(c3ccc(NC4CCC(=O)NC4=O)cc3F)CC2)CC1 (stereo not drawn) [Compound 241, 3-[4-[4-[2-[1-[2-chloro-6-methoxy-4-(2-methyl-1-oxo-2,7-naphthyridin-4-yl)benzoyl]-4-piperidyl]ethyl]-1-piperidyl]-3-fluoro-anilino]piperidine-2,6-dione]
COc1cc(-c2cn(C)c(=O)c3[nH]ncc23)cc(OC)c1CN1CCN(C(=O)CN2CCC(c3ccc(NC4CCC(=O)NC4=O)cc3F)CC2)CC1 (stereo not drawn) [Compound 7]
COc1cc(-c2cn(C)c(=O)c3cnccc23)cc(OC)c1CN1CCN(C(=O)CC2CCN(c3ccc(NC4CCC(=O)NC4=O)cc3C(F)(F)F)CC2)CC12CC2 (stereo not drawn) [Compound 59]
COc1cc(-c2cn(C)c(=O)c(C)c2C)cc(Cl)c1CN1CCC(C2CCN(c3ccc(NC4CCC(=O)NC4=O)cc3Cl)CC2)CC1 (stereo not drawn) [Compound 76]
COc1cc(-c2cn(C)c(=O)c(C)c2C)cc(OC)c1CN1CCC(N2CCN(c3ccc(NC4CCC(=O)NC4=O)nc3)CC2)C(F)(F)C1 (stereo not drawn) [Compound 195]
COc1cc(-c2cn(C)c(=O)c3[nH]ncc23)cc(OC)c1CN1CCN(C(=O)CN2CCC(c3ccc(NC4CCC(=O)NC4=O)cc3)C(F)(F)C2)CC1 (stereo not drawn) [Compound 8]
COc1cc(-c2cn(C)c(=O)c3cnccc23)cc(Cl)c1C(=O)N1CCc2c(CN3CCC(c4ccc(NC5CCC(=O)NC5=O)cc4)C(F)(F)C3)cccc2C1 (stereo not drawn) [Compound 236]
Cn1cc(-c2ccc(C(=O)N3CCC(C4CCN(c5ccc(NC6CCC(=O)NC6=O)cc5F)CC4)CC3)c(OC(F)(F)F)c2)c2ccncc2c1=O (stereo not drawn) [Compound 211]
COc1cc(-c2cn(C)c(=O)c3cnccc23)cc(F)c1CN1CCC(N(C)C(=O)N2CCC(c3ccc(NC4CCC(=O)NC4=O)cc3)CC2)C(F)(F)C1 (stereo not drawn) [Compound 124]
COc1cc(-c2cn(C)c(=O)c3[nH]ncc23)cc(OC)c1CN1CCC(OC(=O)N2CCC(c3ccc(NC4CCC(=O)NC4=O)cc3)CC2)CC1 (stereo not drawn) [Compound 94, [1-[[2,6-dimethoxy-4-(6-methyl-7-oxo-1H-pyrazolo[3,4-c]pyridin-4-yl)phenyl]methyl]-4-piperidyl] 4-[4-[(2,6-dioxo-3-piperidyl)amino]phenyl]piperidine-1-carboxylate]
Cn1cc(-c2ccc(CN3CCc4c(cccc4CN4CCC(c5ccc(NC6CCC(=O)NC6=O)cc5)C(F)(F)C4)C3)c(OC(F)(F)F)c2)c2cn[nH]c2c1=O (stereo not drawn) [Compound 101]
COc1cc(-c2cn(C)c(=O)c3ccccc23)cc(Cl)c1CN1CCC(N2CCN(c3ccc(NC4CCC(=O)NC4=O)cc3F)CC2)C(F)(F)C1 (stereo not drawn) [Compound 192]
COc1cc(-c2cn(C)c(=O)c3[nH]ncc23)cc(OC)c1CN1CCC(C2CCN(c3ccc(NC4CCC(=O)NC4=O)cc3)CC2)CC1 (stereo not drawn) [Compound 70, 3-[4-[4-[1-[[2,6-dimethoxy-4-(6-methyl-7-oxo-1H-pyrazolo[3,4-c]pyridin-4-yl)phenyl]methyl]-4-piperidyl]-1-piperidyl]anilino]piperidine-2,6-dione]
COc1cc(-c2cn(C)c(=O)c3cnccc23)cc(Cl)c1CN1CCC(CCC2CCN(c3ccc(NC4CCC(=O)NC4=O)cc3F)CC2)CC1 (stereo not drawn) [Compound 150]
COc1cc(-c2cn(C)c(=O)c3[nH]ncc23)cc(F)c1CN1CCN(C(=O)CN2CCC(c3ccc(NC4CCC(=O)NC4=O)cc3)C(F)(F)C2)CC1 (stereo not drawn) [Compound 33]
COc1cc(-c2cn(C)c(=O)c3[nH]ncc23)c(Cl)cc1CN1CCN(C(=O)CN2CCC(c3ccc(NC4CCC(=O)NC4=O)cc3)CC2)CC1 (stereo not drawn) [Compound 19]
CN(C(=O)N1CCC(c2ccc(NC3CCC(=O)NC3=O)cc2)CC1)C1CCN(C(=O)c2ccc(-c3cn(C)c(=O)c4ccc(F)cc34)cc2OC(F)(F)F)CC1 (stereo not drawn) [Compound 128]
